Reference: PMC12476087, “Loading of Dicarboxylatoplatinum(II)‐NHC Complexes in Bacterial Ghosts as an Advanced Development in Cancer Therapy” (Archiv Der Pharmazie, 2025)

Assay: Stability in D2O (1H NMR)
Type: physicochemical
Details: for behaviour in D2O (aquation): rt, up to 24 h
Protocol: Stability of the complexes 1–4 in CDCl3, CD3OD, CD3CN, DMF‐d7, and D2O was monitored by ^1H NMR spectroscopy at ambient temperature. Solutions of the complexes (approximately 3 mg/mL) were prepared in each solvent, and ¹H NMR spectra were recorded periodically over 24 h.

Molecule | behaviour in D2O (aquation) | complex that had released its acetates (within 5 min of dissolution)
CCN1[C]([Pt]([O]C(C)=O)([O]C(C)=O)[SH](C)(C)=O)N(CC)c2ccccc21 [Compound 1, (SP‐4‐2)‐Diacetato(1,3‐diethylbenzimidazol‐2‐ylidene)(dimethylsulfoxide)platinum(II)] | No significant spectral changes were observed during incubation for 24 h at rt | over 70%
(SP‐4‐2)‐Diacetatobis(1,3‐diethylbenzimidazol‐2‐ylidene)platinum(II) [Compound 2] | fast initial aquation | 
